Data set [1] concerns GM-CSF-producing CD8-positive T-cells. The data set is described as follows: GM-CSF-producing CD8-positive T-cells in PBMCs of normal subjects after single oral dose (FACS). It is filed as in vivo, human. Here is the method:
A single dose of compound 31, which is a synthetic glycolipid of the present invention, described in the first aspect, i.e., (2S,3S,4R)-1-O-(α-D-galactosyl)-2-(N-tetracosanoylamino)-1,3,4-nonanetriol represented by the following formula (III), was orally administered to each of subjects of 4 cohorts (A, B, C, and D cohorts) each consisting of 3 normal subjects shown in Table 1 above after obtainment of informed consent.
The dose was set to 0.3 mg per person for A cohort, 1 mg per person for B cohort, 3 mg per person for C cohort, and 10 mg per person for D cohort.
Subsequently, T-cell subfractions were prepared from the peripheral blood of each subject by using the density gradient centrifugation method. First, a total of 20 mL of blood was collected from the vein of each subject 24 hours (1st day), 48 hours (2nd day), 72 hours (3rd day), and 168 hours (7th day) after the administration of compound 31 by using two 10-mL heparin sodium-containing vacuum blood collection tubes. For a control, 20 mL of blood was similarly collected from the vein of each subject one day before the administration of compound 31.
Next, 4 mL of Ficoll-Paque Plus (GE Healthcare Biosciences Corp.) was placed in each of four 15-mL conical tubes, and 10 mL of blood diluted twice with phosphate buffered saline (PBS) was gently layered thereon. Then, density gradient centrifugation was performed by centrifugation at 1800 rpm at ordinary temperature for 30 minutes. After the centrifugation, a supernatant containing plasma and platelet was discarded, and lymphocytes present at the boundary layer between the supernatant layer and the Ficoll-Paque Plus layer were recovered into a fresh 50-mL conical tube. The 50-mL conical tube was filled by adding PBS thereto, followed by centrifugation at 1800 rpm at ordinary temperature for 5 minutes. […] After a supernatant was removed by suction again, a single cell suspension was prepared by adding 1 mL of AIM-V medium (Life Technologies Corp.), and then, the number of cells was measured with a counting chamber. […]

A short description of data set [2]: Disposition after single oral dose, rat. It counts as in vivo. As to conditions: male rat, 10 mg/kg single oral, 14C-labeled, fasting. On the procedure:
After a single dose of compound 31 labeled with ^14C was orally administered at a predetermined dose to each of a male mouse, a male rat, and a male cynomolgus monkey under fasting conditions, the concentration in blood was measured after a lapse of a given time, and parameters such as maximum plasma concentration Cmax, time Tmax to reach the maximum plasma concentration, half-life t1/2, area under curve AUC0-∞, mean retention time MRT0-∞, and bioavailability BA were calculated. The concentration in blood in humans (normal subjects) was measured and each of the parameters was calculated, in the similar manner as above except that ^14C-unlabeled compound 31 was used.
In the tables, “N.D.” means not detected.

Molecules are shown by their SMILES.

The AUC(0-inf) is the area under the concentration-time curve extrapolated to infinity. Low values mean low exposure, high ones high exposure. For orientation: AUC(0-t) means exposure summed from dosing to a finite time, without extrapolation to infinity. Usually half-life stands for how long it takes for the measured level to halve. Read a low half-life as fast loss. A word on the Cmax: it is the maximum level reached in the sampled fluid or tissue. Broadly, the Tmax is the time from dosing to the highest level.

Take `CCCCCCCCCCCCCCCCCCCCCCCC(=O)NC(COC1OC(CO)C(O)C(O)C1O)[C@H](O)C(O)CCCCC` (stereo in doubt) [compound 31, (2S,3S,4R)-1-O-(α-D-galactosyl)-2-(N-tetracosanoylamino)-1,3,4-nonanetriol]: the “suppressive effects on CD8-positive T-cells” value in data set [1] (A cohort (0.3 mg), 7 days after administration) is “strengthened”. In addition, the “growth of CD8-positive T-cells” value in data set [1] (C cohort (3 mg), 1 day after administration) is listed as “transiently promoted”. The “proportion of CD8-positive T-cells (GM-CSF-producing) in PBMCs” value in data set [1] (single oral dose, all cohorts, after administration vs day-1) is listed as “decreased”. Moreover, the AUC(0-inf) in data set [2] (blood) was determined as 3330 ng·h/mL. This compound registered an AUC(0-t) in data set [2] (blood) of 3130 ng·h/mL. For the same compound, the half-life in data set [2] (blood) is 26 h. In addition, the MRT inf in data set [2] (blood, read-out: MRT0-∞) is 32.4 h. Moreover, the BA in data set [2] is recorded as 0.51%. The compound further came in with a Rate of absorption in data set [2] of 0.96%. The concentration in blood was determined as 31 in data set [2] (4 h); 128 in data set [2] (8 h); 101 in data set [2] (12 h); 47.1 in data set [2] (24 h); 18.5 in data set [2] (48 h); 10.2 in data set [2] (72 h). In data set [2] (plasma), this compound returned a Cmax of 128 ng/mL. For the same compound, the Tmax in data set [2] (plasma) amounted to 8 h.
